# Data taken from ChEMBL document CHEMBL3045943, “Novel N-aryl(alkaryl)-2-[(3-R-2-oxo-2H-[1,2,4]triazino[2,3-c]quinazoline-6-yl)thio]acetamides: synthesis, cytotoxicity, anticancer activity, COMPARE analysis and docking” (2013).
# Legend:
# Type in all cases: functional
# [1] = test system: Photobacterium leiognathi; assay: Growth inhibition of Photobacterium leiognathi Sh1 assessed as bio-luminescence at 0.025 mg/ml after 10 min by acute action test relative to control; set-up: scale not given: the % may be the effect or the level left
# [2] = test system: SK-MEL-5; assay: Cytotoxicity against Homo sapiens (human) SK-MEL-5 cells assessed as cell growth at 10 uM after 48 hr by SRB assay relative to control; settings: SK-MEL-5, 48 h, read-out: Activity
# [3] = test system: A549; assay: Cytotoxicity against Homo sapiens (human) A549 cells assessed as cell growth at 10 uM after 48 hr by SRB assay relative to control; settings: A549, 48 h, read-out: Activity
# [4] = Cytotoxicity against Homo sapiens (human) NCI-ADR-RES cells assessed as cell growth at 10 uM after 48 hr by SRB assay relative to control; settings: read-out: Activity
# [5] = test system: SF-539; assay: Cytotoxicity against Homo sapiens (human) SF539 cells assessed as cell growth at 10 uM after 48 hr by SRB assay relative to control; settings: SF-539, 48 h, read-out: Activity
# [6] = test system: SW-620; assay: Cytotoxicity against Homo sapiens (human) SW620 cells assessed as cell growth at 10 uM after 48 hr by SRB assay relative to control; settings: SW-620, 48 h, read-out: Activity
# [7] = test system: TK-10; assay: Cytotoxicity against Homo sapiens (human) TK10 cells assessed as cell growth at 10 uM after 48 hr by SRB assay relative to control; settings: TK-10, 48 h, read-out: Activity
# [8] = test system: OVCAR-8; assay: Cytotoxicity against Homo sapiens (human) OVCAR8 cells assessed as cell growth at 10 uM after 48 hr by SRB assay relative to control; settings: OVCAR-8, 48 h, read-out: Activity
# [9] = test system: HOP-62; assay: Cytotoxicity against Homo sapiens (human) HOP62 cells after 48 hr by SRB assay; settings: HOP-62, 48 h
# [10] = test system: LOX IMVI; assay: Cytotoxicity against Homo sapiens (human) LOXIMVI cells assessed as cell growth at 10 uM after 48 hr by SRB assay relative to control; settings: read-out: Activity
# [11] = test system: SNB-75; assay: Cytotoxicity against Homo sapiens (human) SNB75 cells after 48 hr by SRB assay; settings: SNB-75, 48 h
# [12] = test system: NCI-H460; assay: Cytotoxicity against Homo sapiens (human) NCI-H460 cells assessed as cell growth at 10 uM after 48 hr by SRB assay relative to control; settings: NCI-H460, 48 h, read-out: Activity
# [13] = test system: HCT-116; assay: Cytotoxicity against Homo sapiens (human) HCT116 cells assessed as cell growth at 10 uM after 48 hr by SRB assay relative to control; settings: HCT-116, 48 h, read-out: Activity
# [14] = test system: MCF7; assay: Cytotoxicity against Homo sapiens (human) MCF7 cells assessed as cell growth at 10 uM after 48 hr by SRB assay relative to control; settings: MCF7, 48 h, read-out: Activity
# [15] = test system: Photobacterium leiognathi; assay: Growth inhibition of Photobacterium leiognathi Sh1 assessed as bio-luminescence at 0.025 mg/ml after 16 to 18 hr by chronic action test relative to control; set-up: scale not given: the % may be the effect or the level left
# [16] = test system: DU-145; assay: Cytotoxicity against Homo sapiens (human) DU145 cells assessed as cell growth at 10 uM after 48 hr by SRB assay relative to control; settings: DU-145, 48 h, read-out: Activity
# [17] = test system: 786-0; assay: Cytotoxicity against Homo sapiens (human) 786-0 cells assessed as cell growth at 10 uM after 48 hr by SRB assay relative to control; settings: 786-0, 48 h, read-out: Activity
# [18] = test system: OVCAR-3; assay: Cytotoxicity against Homo sapiens (human) OVCAR3 cells assessed as cell growth at 10 uM after 48 hr by SRB assay relative to control; settings: OVCAR-3, 48 h, read-out: Activity
# [19] = test system: NCI-H522; assay: Cytotoxicity against Homo sapiens (human) NCI-H522 cells assessed as cell growth at 10 uM after 48 hr by SRB assay relative to control; settings: NCI-H522, 48 h, read-out: Activity
# [20] = test system: MDA-MB-231; assay: Cytotoxicity against Homo sapiens (human) MDA-MB-231 cells after 48 hr by SRB assay; settings: MDA-MB-231, 48 h
# [21] = test system: A498; assay: Cytotoxicity against Homo sapiens (human) A498 cells after 48 hr by SRB assay; settings: A498, 48 h
# [22] = test system: U-251; assay: Cytotoxicity against Homo sapiens (human) U251 cells after 48 hr by SRB assay; settings: U-251, 48 h
# [23] = test system: RXF 393; assay: Cytotoxicity against Homo sapiens (human) RXF393 cells assessed as cell growth at 10 uM after 48 hr by SRB assay relative to control; settings: RXF 393, 48 h, read-out: Activity
# [24] = test system: UACC-62; assay: Cytotoxicity against Homo sapiens (human) UACC62 cells assessed as cell growth at 10 uM after 48 hr by SRB assay relative to control; settings: UACC-62, 48 h, read-out: Activity
# [25] = test system: SNB-75; assay: Cytotoxicity against Homo sapiens (human) SNB75 cells assessed as cell growth at 10 uM after 48 hr by SRB assay relative to control; settings: SNB-75, 48 h, read-out: Activity
# [26] = test system: OVCAR-4; assay: Cytotoxicity against Homo sapiens (human) OVCAR4 cells assessed as cell growth at 10 uM after 48 hr by SRB assay relative to control; settings: OVCAR-4, 48 h, read-out: Activity
# [27] = test system: Photobacterium leiognathi; assay: Growth inhibition of Photobacterium leiognathi Sh1 assessed as bio-luminescence at 0.1 mg/ml after 10 min by acute action test relative to control; set-up: scale not given: the % may be the effect or the level left
# [28] = test system: U-251; assay: Cytotoxicity against Homo sapiens (human) U251 cells assessed as cell growth at 10 uM after 48 hr by SRB assay relative to control; settings: U-251, 48 h, read-out: Activity
# [29] = test system: Photobacterium leiognathi; assay: Growth inhibition of Photobacterium leiognathi Sh1 assessed as bio-luminescence at 0.1 mg/ml after 16 to 18 hr by chronic action test relative to control; set-up: scale not given: the % may be the effect or the level left
# [30] = test system: MDA-MB-231; assay: Cytotoxicity against Homo sapiens (human) MDA-MB-231 cells assessed as cell growth at 10 uM after 48 hr by SRB assay relative to control; settings: MDA-MB-231, 48 h, read-out: Activity
# [31] = test system: MDA-MB-435; assay: Cytotoxicity against Homo sapiens (human) MDA-MB-435 cells assessed as cell growth at 10 uM after 48 hr by SRB assay relative to control; settings: MDA-MB-435, 48 h, read-out: Activity
# [32] = test system: SK-MEL-2; assay: Cytotoxicity against Homo sapiens (human) SK-MEL-2 cells assessed as cell growth at 10 uM after 48 hr by SRB assay relative to control; settings: SK-MEL-2, 48 h, read-out: Activity
# [33] = test system: Photobacterium leiognathi; assay: Growth inhibition of Photobacterium leiognathi Sh1 assessed as bio-luminescence at 0.25 mg/ml after 10 min by acute action test relative to control; set-up: scale not given: the % may be the effect or the level left
# [34] = test system: Photobacterium leiognathi; assay: Growth inhibition of Photobacterium leiognathi Sh1 assessed as bio-luminescence at 0.25 mg/ml after 16 to 18 hr by chronic action test relative to control; set-up: scale not given: the % may be the effect or the level left
compound,measurement,setting,value
O=C(CSc1nc2ccccc2c2nc(=O)c(-c3ccccc3)nn12)NCc1ccccc1F,Activity,[1],118.8%
same,growth at 10 µM,[2],47.3%
same,growth at 10 µM,[3],26%
same,growth at 10 µM,[4],38.8%
same,growth at 10 µM,[5],20.9%
same,growth at 10 µM,[6],31%
same,growth at 10 µM,[7],46.3%
same,growth at 10 µM,[8],36.2%
same,GI50,[9],2.82 µM
same,LC50,[9],> 100 µM
same,TGI,[9]; read-out: pTGI (converted),> 100 µM
same,growth at 10 µM,[10],50.5%
same,GI50,[11],1.82 µM
same,LC50,[11],> 100 µM
same,TGI,[11]; read-out: pTGI (converted),> 100 µM
same,growth at 10 µM,[12],5.5%
same,growth at 10 µM,[13],34.5%
same,growth at 10 µM,[14],38.2%
same,Activity,[15],90.6%
same,growth at 10 µM,[16],35.9%
same,growth at 10 µM,[17],16.5%
same,growth at 10 µM,[18],9.5%
same,growth at 10 µM,[19],34.5%
same,GI50,[20],2.69 µM
same,CC50,[20]; read-out: pLC50 (the source's name) (converted),> 100 µM
same,TGI,[20]; read-out: pTGI,> 100 µM
same,GI50,[21],1.29 µM
same,LC50,[21],> 100 µM
same,TGI,[21]; read-out: pTGI (converted),> 100 µM
same,GI50,[22],2.69 µM
same,LC50,[22],> 100 µM
same,TGI,[22]; read-out: pTGI (converted),> 100 µM
same,growth at 10 µM,[23],42.3%
same,growth at 10 µM,[24],41.2%
same,growth at 10 µM,[25],15.8%
same,growth at 10 µM,[26],-39.5%
same,Activity,[27],125%
same,growth at 10 µM,[28],2.29%
same,Activity,[29],75%
same,growth at 10 µM,[30],48.9%
same,growth at 10 µM,[31],49.6%
same,growth at 10 µM,[32],50.3%
same,Activity,[33],100%
same,Activity,[34],54.5%
